Columns and labels:
5α-reductase = target: T1, 5α-reductase (Homo sapiens, UniProt P31213); assay: 5α-reductase activity inhibition, conversion of [14C]testosterone to DHT in HEK293-5α R2 cells; type: cell-based; conditions: 2 hours
T1 construct: 3×FLAG; expressed in transfected cells; host or cells: HEK293
T1 sequence (P31213 1-254): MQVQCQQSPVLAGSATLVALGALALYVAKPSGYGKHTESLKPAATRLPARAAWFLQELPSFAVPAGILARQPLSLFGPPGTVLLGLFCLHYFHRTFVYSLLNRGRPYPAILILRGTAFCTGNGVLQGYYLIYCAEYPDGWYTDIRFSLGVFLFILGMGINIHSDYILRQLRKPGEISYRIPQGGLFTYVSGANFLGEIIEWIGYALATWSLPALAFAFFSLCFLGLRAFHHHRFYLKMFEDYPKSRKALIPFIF
Method: In order to evaluate the inhibitory effect on the activity of 5α-reductase, the conversion rate from [^14C]testosterone to [^14C]dihydrotestosterone (DHT) in HEK293-5α R2 cells is measured. P3×FLAG-CMV-5α R2 is transduced into HEK293 cells, which are cultured in a 24-well plate at a rate of 2.5×10^5 cells per well (Park et al., 2003, JDS. Vol. 31, pp. 191-98). The next day, the used culture medium is replaced with a new culture medium containing an enzyme substrate and an inhibitor. The substrate of the culture medium is 0.05 μCi [^14C]testosterone (Amersham Pharmacia Biotech, UK).
To evaluate the degree of 5α-reductase activity inhibition, the cells are treated with ginsenoside F2 and then cultured in a 5% CO2 incubator at 37° C. for 2 hours. In this regard, the negative control is the group not treated with ginsenoside F2, while the positive control is the group treated with finasteride. Subsequently, the culture medium is collected to extract steroids with 800 μl of ethylacetate, and the supernatant organic solvent phase is isolated and dried. The residue is dissolved in 50 μl of ethylacetate and developed on silica plastic sheet kieselgel 60 F254 using an ethylacetate-hexane (1:1) solvent.
The plastic sheet is dried out in the air and measured in regards to the abundance of isotope using a bath system. The dry plastic sheet together with an X-ray film is put in a bath cassette. After one week, the abundance of isotope of testosterone and dihydrotestosterone remaining on the film is measured to calculate the conversion rate and the inhibition rate according to the following mathematical formulas 5 and 6, respectively.

3T3-L1 cells = assay: Lipogenesis inhibition in 3T3-L1 cells (Sudan III dyeing); type: cell-based, mouse; conditions: caffeine 50 μM; visual evaluation of fat accumulation
Method: The mouse fibroblast cell line, 3T3-L1 cells are immobilized in a 6-well culture plate filled with Dulbecco's modified eagle's medium (DMEM) (GIBCO BRL, Life Technologies, Inc.) containing 10% fetal bovine serum (FBS) at an amount of 1×10^5 cells/well. After 2 days, the used medium is replaced with a new DMEM (containing 10% FBS) medium to culture the cells for 2 days. […] After 5 days, the used DMEM medium is replaced with a normal medium (DMEM containing 10% FBS). The cells are cultured and observed until they are morphologically changed into fat cells. In order to evaluate the ginsenoside F2 in regards to the inhibitory effect on the fat accumulation in the fat cells, the completely differentiated 3T3-L1 fat cells are dyed with Sudan III ([…], Sigma-Aldrich). The fat cells are immobilized with 4% para-formaldehyde (pH 7.2) at the room temperature in a phosphate buffer solution. The fat cells are washed with phosphate-buffered saline (PBS) and then dyed with Sudan III. The picture of the fat cells is taken for visual evaluation. The control uses a medium using neither a test substance nor a comparative substance. The comparative control group is treated with 50 μM caffeine. The fat accumulation inhibitory ability is evaluated based on the degree of dying. The degree of dying is graded +++, ++, +, and - in the decreasing order.

interleukin-8 (IL-8) = assay: IL-8 generation inhibition in normal human skin keratinocytes (ELISA); type: cell-based; conditions: stimulation with PGSA / LPS, 24 hours
Method: One day before the testing, normal human skin keratinocytes (NHEK) purchased from Lonza are injected into a 96-well plate at a rate of 5×10^4 cells/well and cultured in an incubator under conditions of 5% CO2 and 37° C. for 24 hours. After 24 hours, the culture plate is washed with PBS twice, and the used culture medium is replaced with a serum-free keratinocyte basement medium. Ginsenoside F2 is injected into each well according to the concentration of Table 24 and allowed to react for 30 minutes. Then, the keratinocytes are treated separately with 10 μg/ml of PGSA, 50 μg/ml of PGSA, and a mixture of PGSA (50 μg/ml) and LPS (1 μg/ml). In this regard, PGSA (peptidoglycan from S. aureus) is stapylococcus-derived peptidoglycan that is a principal component of the cell membrane of gram-positive (+) bacteria, and the components of the cell membrane of bacteria are known to cause inflammation. Particularly, it is reported that about 90% of patients with atopic dermatitis are susceptible to secondary infection due to staphylococcus. LPS (lipopolysaccharide) is a principal component of the cell membrane of gram-negative (−) bacteria and reportedly a main cause of inflammation. After the keratinocytes are cultured in an incubator under conditions of 5% CO2 and 37° C. for 24 hours, the culture medium is collected and subjected to ELISA for interleukin-8 (IL-8). The ELISA is carried out according to the testing method as instructed by the manufacturer (BD Science).

SMILES: CC(C)=CCC[C@](C)(O[C@@H]1O[C@H](CO)[C@@H](O)[C@H](O)[C@H]1O)[C@H]1CC[C@]2(C)[C@@H]1[C@H](O)C[C@@H]1[C@@]3(C)CC[C@H](O[C@@H]4O[C@H](CO)[C@@H](O)[C@H](O)[C@H]4O)C(C)(C)[C@@H]3CC[C@]12C [Ginsenoside F2, ginsenoside F2]
- Inhibition rate (%) (5α-reductase; 5α-reductase activity): 59.7%
- Conversion rate (%) (5α-reductase; testosterone to dihydrotestosterone): 15.4%
- Degree of Sudan III staining (visual grade) (3T3-L1 cells): −
- IL-8 secretion (interleukin-8 (IL-8); 5 ppm): 1209.66 pg/mL
- IL-8 secretion (interleukin-8 (IL-8); 25 ppm): 1118.80 pg/mL
- IL-8 secretion (interleukin-8 (IL-8); 50 ppm): 1110.29 pg/mL
